Results as given in ChEMBL document CHEMBL3046052, “New thiazolidinedione-5-acetic acid amide derivatives: synthesis, characterization and investigation of antimicrobial and cytotoxic properties” (Med Chem Res, 2012).
≈ marks a conversion by molar mass, not a printed value.

How the values were obtained:
HeLa = assay: Cytotoxicity against Homo sapiens (human) HeLa cells after 24 hr by MTT assay; assay type: functional, cell-based
A549 = assay: Cytotoxicity against Homo sapiens (human) A549 cells after 24 hr by MTT assay; assay type: functional, cell-based; conditions: A549, 24 h
Candida albicans = assay: Antifungal activity against Candida albicans ATCC 2091 after 48 hr by NCCLS two-fold serial dilution method; assay type: functional; conditions: ATCC 2091, 48 h
MCF7 = assay: Cytotoxicity against Homo sapiens (human) MCF7 cells after 24 hr by MTT assay; assay type: functional, cell-based; conditions: MCF7, 24 h
Cryptococcus neoformans = assay: Antifungal activity against Cryptococcus neoformans clinical isolate after 48 hr by NCCLS two-fold serial dilution method; assay type: functional
Enterococcus faecalis = assay: Antibacterial activity against Enterococcus faecalis ATCC 35550 after 24 hr by NCCLS two-fold serial dilution method; assay type: functional; conditions: ATCC 35550, 24 h
Aspergillus niger = assay: Antifungal activity against Aspergillus niger ATCC 6275 after 48 hr by NCCLS two-fold serial dilution method; assay type: functional; conditions: ATCC 6275, 48 h
Escherichia coli = assay: Antibacterial activity against Escherichia coli ATCC 35218 after 24 hr by NCCLS two-fold serial dilution method; assay type: functional; conditions: ATCC 35218, 24 h
Aspergillus flavus = assay: Antifungal activity against Aspergillus flavus NCIM 524 after 48 hr by NCCLS two-foldserial dilution method; assay type: functional; conditions: NCIM 524, 48 h
HT-29 = assay: Cytotoxicity against Homo sapiens (human) HT-29 cells after 24 hr by MTT assay; assay type: functional, cell-based; conditions: HT-29, 24 h
Staphylococcus aureus = assay: Antibacterial activity against Staphylococcus aureus ATCC 25923 after 24 hr by NCCLS two fold serial dilution method; assay type: functional; conditions: ATCC 25923, 24 h
Pseudomonas aeruginosa = assay: Antibacterial activity against Pseudomonas aeruginosa ATCC 25619 after 24 hr by NCCLS two-fold serial dilution method; assay type: functional; conditions: ATCC 25619, 24 h

SMILES | IC50 (HeLa) [µM] | IC50 (A549) [µM] | MIC (Candida albicans) [µg/mL] | IC50 (MCF7) [µM] | MIC (Cryptococcus neoformans) [µg/mL] | MIC (Enterococcus faecalis) [µg/mL] | MIC (Aspergillus niger) [µg/mL] | MIC (Escherichia coli) [µg/mL] | MIC (Aspergillus flavus) [µg/mL] | IC50 (HT-29) [µM] | MIC (Staphylococcus aureus) [µg/mL] | MIC (Pseudomonas aeruginosa) [µg/mL]
O=C(CC1SC(=O)NC1=O)Nc1nnc(-c2ccccc2[N+](=O)[O-])s1 (centres undefined) | 50 | 72 | 64 (≈ 169 µM) | 78 | 64 (≈ 169 µM) | 64 (≈ 169 µM) | 16 (≈ 42.2 µM) | 64 (≈ 169 µM) | 64 (≈ 169 µM) | 68 | 32 (≈ 84.3 µM) | 64 (≈ 169 µM)
O=C(CC1SC(=O)NC1=O)Nc1nnc(-c2cccc([N+](=O)[O-])c2)s1 (centres undefined) | 68 | 78 | 64 (≈ 169 µM) | 67 | 64 (≈ 169 µM) | 64 (≈ 169 µM) | 64 (≈ 169 µM) | 64 (≈ 169 µM) | 64 (≈ 169 µM) | 72 | 32 (≈ 84.3 µM) | 32 (≈ 84.3 µM)
O=C(CC1SC(=O)NC1=O)Nc1nnc(-c2ccc([N+](=O)[O-])cc2)s1 (centres undefined) | 50 | 68 | 64 (≈ 169 µM) | 72 | 64 (≈ 169 µM) | 32 (≈ 84.3 µM) | 64 (≈ 169 µM) | 64 (≈ 169 µM) | 32 (≈ 84.3 µM) | 60 | 32 (≈ 84.3 µM) | 64 (≈ 169 µM)
O=C(CC1SC(=O)NC1=O)Nc1nnc(C(F)(F)F)s1 (centres undefined) | 42 | 60 | 16 (≈ 49 µM) | 62 | 16 (≈ 49 µM) | 32 (≈ 98.1 µM) | 16 (≈ 49 µM) | 32 (≈ 98.1 µM) | 32 (≈ 98.1 µM) | 50 | 32 (≈ 98.1 µM) | 32 (≈ 98.1 µM)
O=C(CC1SC(=O)NC1=O)Nc1nnc(-c2ccc(Cl)cc2)s1 (centres undefined) | 62 | 60 | 16 (≈ 43.4 µM) | 68 | 16 (≈ 43.4 µM) | 32 (≈ 86.8 µM) | 16 (≈ 43.4 µM) | 32 (≈ 86.8 µM) | 16 (≈ 43.4 µM) | 64 | 4 (≈ 10.8 µM) | 32 (≈ 86.8 µM)
O=C(CC1SC(=O)NC1=O)Nc1nnc(-c2ccc(Br)cc2)s1 (centres undefined) | 52 | 68 | 16 (≈ 38.7 µM) | 72 | 16 (≈ 38.7 µM) | 32 (≈ 77.4 µM) | 16 (≈ 38.7 µM) | 32 (≈ 77.4 µM) | 16 (≈ 38.7 µM) | 60 | 8 (≈ 19.4 µM) | 32 (≈ 77.4 µM)
O=C(CC1SC(=O)NC1=O)Nc1nnc(-c2ccc(F)cc2)s1 (centres undefined) | 50 | 50 | 8 (≈ 22.7 µM) | 60 | 8 (≈ 22.7 µM) | 4 (≈ 11.4 µM) | 4 (≈ 11.4 µM) | 8 (≈ 22.7 µM) | 8 (≈ 22.7 µM) | 42 | 4 (≈ 11.4 µM) | 8 (≈ 22.7 µM)
O=C(CC1SC(=O)NC1=O)Nc1nnc(-c2ccccc2Cl)s1 (centres undefined) | 60 | 62 | 16 (≈ 43.4 µM) | 84 | 16 (≈ 43.4 µM) | 16 (≈ 43.4 µM) | 16 (≈ 43.4 µM) | 32 (≈ 86.8 µM) | 32 (≈ 86.8 µM) | 66 | 16 (≈ 43.4 µM) | 32 (≈ 86.8 µM)
Cc1ccc(-c2nnc(NC(=O)CC3SC(=O)NC3=O)s2)cc1 (centres undefined) | 50 | 46 | 16 (≈ 45.9 µM) | 52 | 32 (≈ 91.8 µM) | 4 (≈ 11.5 µM) | 32 (≈ 91.8 µM) | 16 (≈ 45.9 µM) | 32 (≈ 91.8 µM) | 58 | 8 (≈ 23 µM) | 16 (≈ 45.9 µM)
COc1cccc(-c2nnc(NC(=O)CC3SC(=O)NC3=O)s2)c1 (centres undefined) | 54 | 60 | 16 (≈ 43.9 µM) | 58 | 16 (≈ 43.9 µM) | 8 (≈ 22 µM) | 32 (≈ 87.8 µM) | 16 (≈ 43.9 µM) | 16 (≈ 43.9 µM) | 56 | 4 (≈ 11 µM) | 32 (≈ 87.8 µM)
COc1ccc(-c2nnc(NC(=O)CC3SC(=O)NC3=O)s2)cc1 (centres undefined) | 42 | 45 | 16 (≈ 43.9 µM) | 42 | 16 (≈ 43.9 µM) | 4 (≈ 11 µM) | 16 (≈ 43.9 µM) | 32 (≈ 87.8 µM) | 32 (≈ 87.8 µM) | 44 | 16 (≈ 43.9 µM) | 16 (≈ 43.9 µM)
COc1ccc(-c2nnc(NC(=O)CC3SC(=O)NC3=O)s2)cc1OC (centres undefined) | 40 | 35 | 16 (≈ 40.6 µM) | 38 | 16 (≈ 40.6 µM) | 32 (≈ 81.1 µM) | 32 (≈ 81.1 µM) | 16 (≈ 40.6 µM) | 16 (≈ 40.6 µM) | 42 | 16 (≈ 40.6 µM) | 16 (≈ 40.6 µM)
COc1cc(-c2nnc(NC(=O)CC3SC(=O)NC3=O)s2)cc(OC)c1OC (centres undefined) | 33 | 30 | 16 (≈ 37.7 µM) | 36 | 32 (≈ 75.4 µM) | 16 (≈ 37.7 µM) | 16 (≈ 37.7 µM) | 16 (≈ 37.7 µM) | 16 (≈ 37.7 µM) | 35 | 16 (≈ 37.7 µM) | 16 (≈ 37.7 µM)
O=C(CC1SC(=O)NC1=O)Nc1nnc(-c2ccccc2)s1 (centres undefined) | 62 | 80 | 64 (≈ 191 µM) | 80 | 64 (≈ 191 µM) | 64 (≈ 191 µM) | 64 (≈ 191 µM) | 64 (≈ 191 µM) | 64 (≈ 191 µM) | 78 | 32 (≈ 95.7 µM) | 64 (≈ 191 µM)
CC1(C)S[C@@H]2[C@H](NC(=O)[C@H](N)c3ccccc3)C(=O)N2[C@H]1C(=O)O [AMPICILLIN] |  |  |  |  |  | 2 (≈ 5.72 µM) |  |  |  |  | 2 (≈ 5.72 µM) | 
CC(=O)N1CCN(c2ccc(OCC3COC(Cn4ccnc4)(c4ccc(Cl)cc4Cl)O3)cc2)CC1 (centres undefined) [KETOCONAZOLE] |  |  | 2 (≈ 3.76 µM) |  | 2 (≈ 3.76 µM) |  | 2 (≈ 3.76 µM) |  | 1 (≈ 1.88 µM) |  |  | 
